Measurements published in PubChem BioAssay AID330 (DTP/NCI, 2004).
Where “and” joins values, the source holds several entries; their conditions need not be identical. Identical values can stand only once. Inconclusive results and toxic doses are left out.

Test system: P388 leukemia ip, CD2F1 mice, survival T/C
Assay: NCI In Vivo Anticancer Drug Screen. Data for tumor model P388 Leukemia (intraperitoneal) in CD2F1 (CDF1) mice
Conditions: endpoint: median survival time, higher = longer survival
In short: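 Mice carrying the transplanted tumor received test compound or vehicle. Survival was recorded in each group, and the value is the treated-group measurement divided by that of the vehicle-treated control group.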

[1] = dose: 50.0 mg/kg/injection, schedule: Q01DX009 (ip), vehicle: saline
[2] = dose: 100.0 mg/kg/injection, schedule: Q01DX009 (ip), vehicle: saline
[3] = dose: 50.0 mg/kg/injection, schedule: Q01DX005 (ip), vehicle: saline with Tween-80

ClCC[N+]12CC[N+](CCCl)(CC1)C2 (tested in a mixture with another compound)
T/C (dose: 12.5 mg/kg/injection, schedule: Q01DX009 (ip), vehicle: water): 105 % of control and 118 % of control
T/C (dose: 25.0 mg/kg/injection, schedule: Q01DX005 (ip), vehicle: saline): 116 % of control
T/C (dose: 25.0 mg/kg/injection, schedule: Q01DX009 (ip), vehicle: water): 119 % of control
T/C [1]: 159 % of control and 171 % of control
T/C (dose: 50.0 mg/kg/injection, schedule: Q01DX009 (ip), vehicle: water): 150 % of control
T/C (dose: 100.0 mg/kg/injection, schedule: Q01DX005 (ip), vehicle: saline): 162 % of control and 168 % of control
T/C [2]: 197 % of control and 198 % of control
T/C (dose: 100.0 mg/kg/injection, schedule: Q01DX009 (ip), vehicle: water): 160 % of control and 196 % of control
T/C (dose: 200.0 mg/kg/injection, schedule: Q01DX005 (ip), vehicle: saline): 161 % of control and 212 % of control
T/C (dose: 200.0 mg/kg/injection, schedule: Q01DX009 (ip), vehicle: saline): 240 % of control and 263 % of control
T/C (dose: 200.0 mg/kg/injection, schedule: Q01DX009 (ip), vehicle: water): 188 % of control
T/C (dose: 400.0 mg/kg/injection, schedule: Q01DX009 (ip), vehicle: saline): 281 % of control and 296 % of control

O=C(Nc1ncn[nH]1)c1ccccc1O
T/C (dose: 50.0 mg/kg/injection, schedule: Q01DX005 (ip), vehicle: Klucel (hydroxypropylcellulose) (HPC)): 99 % of control
T/C (dose: 100.0 mg/kg/injection, schedule: Q01DX005 (ip), vehicle: Klucel (hydroxypropylcellulose) (HPC)): 91 % of control
T/C (dose: 200.0 mg/kg/injection, schedule: Q01DX005 (ip), vehicle: Klucel (hydroxypropylcellulose) (HPC)): 86 % of control

c1ccc2c(c1)C1CCC2c2ccccc21
T/C (dose: 100.0 mg/kg/injection, schedule: Q01DX009 (ip), vehicle: saline with Tween-80): 118 % of control
T/C (dose: 200.0 mg/kg/injection, schedule: Q01DX009 (ip), vehicle: saline with Tween-80): 104 % of control
T/C (dose: 400.0 mg/kg/injection, schedule: Q01DX009 (ip), vehicle: saline with Tween-80): 118 % of control

COc1cccc2c1C(=O)c1c(O)c3c(c(O)c1C2=O)CC(O)(C(C)=O)CC3OC1CC(NCC2OC(C(=O)O)C(O)C2O)C(O)C(C)O1 (centres undefined)
T/C (dose: 3.13 mg/kg/injection, schedule: Q04DX003 (ip), vehicle: water): 99 % of control
T/C (dose: 6.25 mg/kg/injection, schedule: Q04DX003 (ip), vehicle: water): 102 % of control
T/C (dose: 12.5 mg/kg/injection, schedule: Q04DX003 (ip), vehicle: water): 109 % of control
T/C (dose: 25.0 mg/kg/injection, schedule: Q04DX003 (ip), vehicle: water): 116 % of control
T/C (dose: 50.0 mg/kg/injection, schedule: Q04DX003 (ip), vehicle: water): 110 % of control

Cn1c(N2CCN(CCO)CC2)nc2c1c(=O)n(CC(O)CN1CCN(CCO)CC1)c(=O)n2C (centres undefined)
T/C (dose: 50.0 mg/kg/injection, schedule: Q01DX009 (ip), vehicle: Klucel (hydroxypropylcellulose) (HPC)): 89 % of control
T/C (dose: 100.0 mg/kg/injection, schedule: Q01DX009 (ip), vehicle: Klucel (hydroxypropylcellulose) (HPC)): 97 % of control
T/C (dose: 200.0 mg/kg/injection, schedule: Q01DX009 (ip), vehicle: Klucel (hydroxypropylcellulose) (HPC)): 107 % of control

O=C1OS(=O)(=O)c2cc3c(cc21)C1C(C2C3C3(Cl)C(Cl)=C(Cl)C2(Cl)C3(Cl)Cl)C2(Cl)C(Cl)=C(Cl)C1(Cl)C2(Cl)Cl (centres undefined)
T/C (dose: 12.5 mg/kg/injection, schedule: Q01DX009 (ip), vehicle: saline): 97 % of control
T/C (dose: 25.0 mg/kg/injection, schedule: Q01DX009 (ip), vehicle: saline): 100 % of control
T/C [1]: 100 % of control and 104 % of control
T/C [2]: 107 % of control

O=c1[nH]nc2ccc(n[nH]c1=O)c1ccccc21
T/C (dose: 3.13 mg/kg/injection, schedule: Q01DX005 (ip), vehicle: saline with Tween-80): 104 % of control
T/C (dose: 6.25 mg/kg/injection, schedule: Q01DX005 (ip), vehicle: saline with Tween-80): 107 % of control
T/C (dose: 12.5 mg/kg/injection, schedule: Q01DX005 (ip), vehicle: saline with Tween-80): 99 % of control and 103 % of control
T/C (dose: 25.0 mg/kg/injection, schedule: Q01DX005 (ip), vehicle: saline with Tween-80): 101 % of control
T/C [3]: 104 % of control and 107 % of control

COc1ccc(-c2nccc3cc(OC)c(OC)cc23)cc1O
T/C (dose: 25.0 mg/kg/injection, schedule: Q01DX009 (ip), vehicle: other): 100 % of control
T/C (dose: 50.0 mg/kg/injection, schedule: Q01DX009 (ip), vehicle: other): 86 % of control
T/C (dose: 100.0 mg/kg/injection, schedule: Q01DX009 (ip), vehicle: other): 86 % of control

COC(=O)CC1(C(=O)OC)c2sc(C(C)C)cc2N2CCCC21 (centres undefined)
T/C (dose: 10.0 mg/kg/injection, schedule: Q01DX009 (ip), vehicle: Klucel (hydroxypropylcellulose) (HPC)): 97 % of control
T/C (dose: 20.0 mg/kg/injection, schedule: Q01DX009 (ip), vehicle: Klucel (hydroxypropylcellulose) (HPC)): 93 % of control
T/C (dose: 40.0 mg/kg/injection, schedule: Q01DX009 (ip), vehicle: Klucel (hydroxypropylcellulose) (HPC)): 93 % of control
T/C (dose: 80.0 mg/kg/injection, schedule: Q01DX009 (ip), vehicle: Klucel (hydroxypropylcellulose) (HPC)): 91 % of control

CC1CC[P+](c2ccccc2)(c2ccccc2)c2c1ccc1ccccc21 (centres undefined)
T/C (dose: 6.25 mg/kg/injection, schedule: Q04DX002 (ip), vehicle: saline): 118 % of control
T/C (dose: 12.5 mg/kg/injection, schedule: Q04DX002 (ip), vehicle: saline): 108 % of control

COCN(CCc1ccccc1)CCN(C)C
T/C [1]: 113 % of control
T/C [2]: 109 % of control

OC(ON=C1CCCCC1)c1ccc2c(c1)OCO2 (centres undefined)
T/C [3]: 96 % of control
T/C (dose: 100.0 mg/kg/injection, schedule: Q01DX005 (ip), vehicle: saline with Tween-80): 103 % of control
T/C (dose: 200.0 mg/kg/injection, schedule: Q01DX005 (ip), vehicle: saline with Tween-80): 107 % of control

COC(=O)/C=C(\Cl)C(=O)OC
T/C (dose: 0.62 mg/kg/injection, schedule: Q01DX009 (ip), vehicle: saline with Tween-80): 101 % of control
T/C (dose: 1.25 mg/kg/injection, schedule: Q01DX009 (ip), vehicle: saline with Tween-80): 101 % of control
T/C (dose: 2.5 mg/kg/injection, schedule: Q01DX009 (ip), vehicle: saline with Tween-80): 105 % of control
T/C (dose: 5.0 mg/kg/injection, schedule: Q01DX009 (ip), vehicle: saline with Tween-80): 102 % of control
T/C (dose: 10.0 mg/kg/injection, schedule: Q01DX009 (ip), vehicle: saline with Tween-80): 105 % of control

CCC1(C)C(C#N)C(=O)NC(=O)C1C#N (centres undefined)
T/C (dose: 25.0 mg/kg/injection, schedule: Q01DX009 (ip), vehicle: saline with Tween-80): 95 % of control
T/C (dose: 50.0 mg/kg/injection, schedule: Q01DX009 (ip), vehicle: saline with Tween-80): 95 % of control

COC(=O)c1ccc(SCC2=Nc3c(nc(N)[nH]c3=O)NCC2)cc1
T/C (dose: 12.5 mg/kg/injection, schedule: Q01DX009 (ip), vehicle: distilled water + Tween-80): 99 % of control
T/C (dose: 25.0 mg/kg/injection, schedule: Q01DX009 (ip), vehicle: distilled water + Tween-80): 93 % of control
T/C (dose: 50.0 mg/kg/injection, schedule: Q01DX009 (ip), vehicle: distilled water + Tween-80): 90 % of control
T/C (dose: 100.0 mg/kg/injection, schedule: Q01DX009 (ip), vehicle: distilled water + Tween-80): 90 % of control

CO
T/C (dose: 0.5 % in 0.5 ml injection vol, schedule: Q01DX009 (ip), vehicle: water): 105 % of control
T/C (dose: 1.0 % in 0.5 ml injection vol, schedule: Q01DX009 (ip), vehicle: water): 102 % of control
T/C (dose: 2.0 % in 0.5 ml injection vol, schedule: Q01DX009 (ip), vehicle: water): 104 % of control
T/C (dose: 4.0 % in 0.5 ml injection vol, schedule: Q01DX009 (ip), vehicle: water): 104 % of control
T/C (dose: 8.0 % in 0.5 ml injection vol, schedule: Q01DX009 (ip), vehicle: water): 100 % of control and 107 % of control
T/C (dose: 16.0 % in 0.5 ml injection vol, schedule: Q01DX009 (ip), vehicle: water): 94 % of control

COc1cc2c(cc1O)CCCC=C2
T/C (dose: 100.0 mg/kg/injection, schedule: Q01DX009 (ip), vehicle: gum acacia): 113 % of control
T/C (dose: 200.0 mg/kg/injection, schedule: Q01DX009 (ip), vehicle: gum acacia): 105 % of control
T/C (dose: 400.0 mg/kg/injection, schedule: Q01DX009 (ip), vehicle: gum acacia): 106 % of control

Cc1ccccc1CC1c2[nH]c3ccccc3c2CCN1C (centres undefined)
T/C (dose: 60.0 mg/kg/injection, schedule: Q01DX005 (ip), vehicle: saline with Tween-80): 109 % of control
T/C (dose: 120.0 mg/kg/injection, schedule: Q01DX005 (ip), vehicle: saline with Tween-80): 109 % of control

COC(=O)Cn1/c(=N\N=C\c2ccc(OC)cc2)sc2ccccc21
T/C (dose: 100.0 mg/kg/injection, schedule: Q01DX001 (ip), vehicle: saline with Tween-80): 101 % of control
T/C (dose: 200.0 mg/kg/injection, schedule: Q01DX001 (ip), vehicle: saline with Tween-80): 101 % of control
T/C (dose: 400.0 mg/kg/injection, schedule: Q01DX001 (ip), vehicle: saline with Tween-80): 92 % of control
